Tests used:
[1] = tested on: A2780 ovarian cancer cells; assay: Proliferation assay (Alamar Blue); format: cell-based; settings: Homo sapiens, 96 h, 4-day incubation, read-out: pIC50 (negative log value of the IC50-value) (converted)
Method: Cellular activity of the compounds of formula (I) was determined on A2780 tumour cells using a colorimetric assay for cell toxicity or survival (see example C.2).
The human A2780 ovarian cancer cells were a kind gift from Dr. T. C. Hamilton (Fox Chase Cancer Centre, Pennsylvania, U.S.A.). The cells were cultured in RPMI 1640 medium supplemented with 2 mM L-Glutamine, 50 μg/ml gentamicin and 10% fetal calf serum.
Resazurin was purchased from Aldrich (Prod. No. 199303). Potassium ferrocyanide, potassium ferricyanide, KH2PO4 and K2HPO4 were purchased from Sigma (Prod. Nos. P9387, P8131, P5655 and P8281, respectively).
Potassium Phosphate Buffer 0.1 M (PPB) was made as follows: 2.72 gram KH2PO4 and 13.86 gram K2HPO4 were dissolved in 500 ml milli-Q H2O, the pH was adjusted to pH 7.4 and the volume was brought to 1 liter with milli-Q H2O; the buffer was filter sterilised and stored at room temperature. Resazurin stock solution (PPB-A) was prepared fresh by dissolving 45 mg resazurin in 15 ml PBS. 30 mM potassium ferricyanide (PPB-B) was prepared by dissolving 0.987 gram potassium ferricyanide in 100 ml PPB. 30 mM potassium ferrocyanide (PPB-C) was prepared by dissolving 1.266 gram potassium ferrocyanide in 100 ml PPB.
Mixture of PPB-A, PPB-B and PPB-C was prepared by mixing equal volumes of the respective solutions. Resazurin work solution (herein termed “Alamar Blue” solution) was prepared by diluting said mixture 20× (vol/vol) in PPB and filter sterilising; the Alamar Blue solution could be kept at 4° C. for a maximum of 2 weeks.
For experiments in 384 wells plates the cells were seeded at a density of 5×10^3 cells/ml in Falcon 384-well culture plates (Life Technologies, Merelbeke, Belgium), black with clear bottom, in 45 μl culture medium. Cells were allowed to adhere to plastic for 24 hr. The tested compound was pre-diluted (1/50 in culture medium) and 5 μl pre-diluted compound was added to the wells. Following 4-day incubation, 10 μl of the Alamar Blue solution was added to each well and the cells were further incubated for 5 hrs (A2780) at 37° C. The fluorescence intensity was measured for each well with a Fluorescence plate reader (Fluorskan, Labsystems, 540 nm excitation and 590 nm emission)
The antiproliferative activity was calculated as percentage of remaining viable cells in treated versus control (untreated cells) conditions. Within an experiment, the result for each experimental condition is the mean of 3 replicate wells. When appropriate, the experiments were repeated to establish full concentration-response curves. When appropriate, IC50-values (concentration of the drug, needed to reduce cell growth to 50% of the control) were computed using probit analysis for graded data (Finney, D. J., Probit Analyses, 2nd Ed. Chapter 10, Graded Responses, Cambridge University Press, Cambridge 1962). Herein the effects of test compounds are expressed as pIC50 (the negative log value of the IC50-value) (see Table 4).

p53 in A2780 cells = assay: p53 ELISA (preservation of p53 in A2780 cells); format: cell-based; settings: Homo sapiens, treated with compound for 16 hours, read-out: p53-elisa LAD (lowest dose giving at least 140% of the value for p53 present in the control)
Method: The capacity of the compounds to preserve p53 in A2780 cells was measured with the p53 enzyme linked immunosorbent assay (ELISA). The p53 assay is a “sandwich” enzyme immunoassay employing two polyclonal antibodies. A polyclonal antibody, specific for the p53 protein, has been immobilized onto the surface of the plastic wells. Any p53 present in the sample to be assayed will bind to the capture antibody. The biotinylated detector polyclonal antibody also recognizes p53 protein, and will bind to any p53, which has been retained by the capture antibody. The detector antibody, in turn, is bound by horseradish peroxidase-conjugated streptavidin. The horseradish peroxidase catalyses the conversion of the chromogenic substrate o-phenylene diamine, the intensity of which is proportional to the amount of p53 protein bound to the plate. The coloured reaction product is quantified using a spectrophotometer. Quantitation is achieved by the construction of a standard curve using known concentrations of purified recombinant HIS tagged p53 protein (see example C.1).
A2780 cells (ATCC) were cultivated in RPMI 1640 supplemented with 10% fetal calf serum (FCS), 2 mM L-glutamine and gentamycin at 37° C. in a humidified incubator with 5% CO2.
A2780 cells were seeded at 20.000 cells per well in a 96 well plate, cultured for 24 hours and treated with compound for 16 hours at 37° C. in a humidified incubator. After incubation, the cells were washed once with phosphate-buffered saline and 30 μl, per well, low salt RIPA buffer (20 mM tris, pH7.0, 0.5 mM EDTA, 1% Nonidet P40, 0.5% DOC, 0.05% SDS, 1 mM PMSF, 1 μg/ml aprotinin and 0.5 μ/ml leupeptin) was added. Plates were placed on ice for 30 minutes to complete the lysis. p53 protein was detected in de lysates by using the sandwich ELISA, described below.
High binding polystyrene EIA/RIA 96 well plates (Costar 9018) were coated with the capture antibody pAb1801 (Abcam ab28-100) at a concentration of 1 μg/ml in coating buffer (0.1 M NaHCO3 pH8.2), 50 μl per well. The antibody was allowed to adhere overnight at 4° C. Coated plates were washed once with phosphate-buffered saline (PBS)/0.05% Tween 20 and 300 μl of blocking buffer (PBS, 1% bovine serum albumins (BSA)) was added, for an incubation period of 2 hours at room temperature. Dilutions of purified recombinant HIS tagged p53 protein, ranging from 3-200 ng/ml, were made in blocking buffer and used as standards.
Plates were washed twice with PBS/0.05% Tween 20 and blocking buffer or standards were added at 80 μl/well. To the standards, 20 μl of lysis buffer was added. The samples were added to the other wells at 20 μl lysate/well. After an overnight incubation at 4° C., plates were washed twice with PBS/0.05% Tween 20. Aliquots of 100 μl secondary polyclonal antibody p53(FL-393) (Tebubio, sc-6243) at a concentration of 1 μg/ml in blocking buffer were added to each well and allowed to adhere for 2 hours at room temperature. Plates were washed three times with PBS/0.05% Tween 20. Detection antibody anti-rabbit HRP (sc-2004, Tebubio) at 0.04 μg/ml in PBS/1% BSA was added and incubated for 1 hour at room temperature. Plates were washed three times with PBS/0.05% Tween 20 and 100 μl of substrate buffer was added (substrate buffer was prepared shortly before use by adding 1 tablet of 10 mg o-phenylene diamine (OPD) from Sigma and 125 μl 3% H2O2 to 25 ml OPD buffer: 35 mM citric acid, 66 mM Na2HPO4, pH5.6). After 5 to 10 minutes, colour reaction was stopped by adding 50 μl stop buffer (1 M H2SO4) per well. The absorbance at dual wavelengths of 490/655 nm was measured using a Biorad micro plate reader and the results were then analyzed.
For each experiment, controls (containing no drug) and a blank incubation (containing no cells or drugs) were run in parallel. The blank value was subtracted from all control and sample values. For each sample, the value of p53 (in absorbance units) was expressed as the percentage of the value for p53 present in the control. […]

Compound	IC50 [1]	minimal effective concentration (p53 in A2780 cells)
OC1CCc2c(Nc3ccc4c(c3)OCCN4CCc3c[nH]c4ccccc34)ccnc21 (stereo not drawn) [Compound 1]	0.427 µM	0.1 µM
O=C1COc2cc(Nc3ccnc4c3CCC4O)ccc2N1CCc1c[nH]c2ccccc12 (stereo not drawn) [Compound 2]	~6.03 µM	1 µM
c1ccc2c(CCN3CCOc4cc(Nc5ccncc5)ccc43)c[nH]c2c1 [Compound 3]	> 10 µM	> 10 µM
O=C1COc2cc(Nc3ccncc3)ccc2N1CCc1c[nH]c2ccccc12 [Compound 4]	> 10 µM	> 10 µM
OC1CCc2c(Nc3ccc4c(c3)OC(c3ccoc3)CN4CCc3c[nH]c4ccccc34)ccnc21 (stereo not drawn) [Compound 5]	2.57 µM	0.3 µM
c1ccc2c(CCN3CCOc4cc(Nc5ccncc5)ccc43)csc2c1 [Compound 6]	5.5 µM	> 10 µM
c1ccc2c(CCN3CC4(CCOCC4)Oc4cc(Nc5ccncc5)ccc43)c[nH]c2c1 [Compound 7]	8.51 µM	> 10 µM
CC(C)N1CCC2(CC1)CN(CCc1c[nH]c3ccccc13)c1ccc(Nc3ccncc3)cc1O2 [Compound 8]	1.26 µM	> 10 µM
CC1CN(CCc2c[nH]c3ccccc23)c2ccc(Nc3ccncc3)cc2O1 (stereo not drawn) [Compound 9]	~5.89 µM	> 10 µM
O=C1N(CCc2c[nH]c3ccccc23)c2ccc(Nc3ccnc4c3CCC4O)cc2OC1(F)F (stereo not drawn) [Compound 10]	–	0.3 µM
OC1CCc2c(Nc3ccc4c(c3)CCCN4CCc3c[nH]c4ccccc34)ccnc21 (stereo not drawn) [Compound 11]	2.34 µM	0.1 µM
OC1CCc2c(Nc3ccc4c(c3)OCCN4CCc3csc4ccccc34)ccnc21 (stereo not drawn) [Compound 12]	3.72 µM	0.3 µM
OC1CCc2c(Nc3cc(F)c4c(c3)OCCN4CCc3c[nH]c4ccccc34)ccnc21 (stereo not drawn) [Compound 13]	4.47 µM	1 µM
Cc1cccc2c(CCN3CCOc4cc(Nc5ccnc6c5CCC6O)ccc43)c[nH]c12 (stereo not drawn) [Compound 14]	2.88 µM	3 µM
c1ccc2c(CCN3CC4(CCNCC4)Oc4cc(Nc5ccncc5)ccc43)c[nH]c2c1 [Compound 15]	8.32 µM	> 10 µM
OCc1cc(Nc2ccc3c(c2)OC2(CCNCC2)CN3CCc2c[nH]c3ccccc23)ccn1 [Compound 16]	> 10 µM	> 10 µM
Cc1cccc2c(CCN3CC(CO)Oc4cc(Nc5ccncc5)ccc43)c[nH]c12 (stereo not drawn) [Compound 17]	–	> 10 µM
Cc1cccc2c(CCN3CC(O)COc4cc(Nc5ccnc6c5CCC6O)ccc43)c[nH]c12 (stereo not drawn) [Compound 18]	–	> 10 µM

Compound	IC50 [1]	minimal effective concentration (p53 in A2780 cells)
Cc1cccc2c(CCN3C[C@@H](CO)Oc4cc(Nc5ccnc6c5CC[C@@H]6O)ccc43)c[nH]c12 [Compound 19]	–	> 10 µM
CN1CCN(CCc2c[nH]c3ccccc23)c2ccc(Nc3ccnc(CO)c3)cc21 [Compound 20]	4.79 µM	3 µM
O=C1COc2cc(Nc3ccnc(CO)c3)ccc2N1CCc1c[nH]c2ccccc12 [Compound 21]	> 10 µM	> 10 µM
OCc1cc(Nc2ccc3c(c2)OCCN3CCc2c[nH]c3ccccc23)ccn1 [Compound 22]	2.29 µM	1 µM
c1ccc2c(CCN3CCCc4cc(Nc5ccncc5)ccc43)c[nH]c2c1 [Compound 23]	3.02 µM	> 10 µM
CC1CN(CCc2c[nH]c3ccccc23)c2ccc(Nc3ccnc4c3CCC4O)cc2O1 (stereo not drawn) [Compound 24]	5.62 µM	3 µM
Cc1cccc2c(CCN3CC4(CCCCC4)Oc4cc(Nc5ccnc6c5CCC6O)ccc43)c[nH]c12 (stereo not drawn) [Compound 25]	~5.62 µM	0.03 µM
OC1CCc2c(Nc3ccc4c(c3)OC3(CCSCC3)CN4CCc3c[nH]c4ccccc34)ccnc21 (stereo not drawn) [Compound 26]	~6.03 µM	0.03 µM
CC1CN(CCc2c[nH]c3ccccc23)c2c(F)cc(Nc3ccnc4c3CCC4O)cc2O1 (stereo not drawn) [Compound 32]	–	3 µM
CC1CN(CCc2c[nH]c3ccccc23)c2c(F)cc(Nc3ccncc3)cc2O1 (stereo not drawn) [Compound 57]	–	> 10 µM
Cc1cccc2c(CCN3CC4(CCN(C)CC4)Oc4cc(Nc5ccncc5)ccc43)c[nH]c12 [Compound 58]	–	> 10 µM
O=C1N(CCc2c[nH]c3ccccc23)c2ccc(Nc3ccncc3)cc2OC1(F)F [Compound 60]	–	> 10 µM
O=C1N(CCc2c[nH]c3ccccc23)c2ccc(Nc3ccnc(CO)c3)cc2OC1(F)F [Compound 64]	–	10 µM
Cc1cccc2c(CCN3CC4(CCNCC4)Oc4cc(Nc5ccncc5)ccc43)c[nH]c12 [Compound 73]	–	> 10 µM
Cc1cccc2c(CCN3CC4(CCNCC4)Oc4cc(Nc5ccnc6c5CCC6O)ccc43)c[nH]c12 (stereo not drawn) [Compound 74]	–	> 10 µM
CC1CN(CCc2c[nH]c3ccccc23)c2ccc(Nc3ccnc(CO)c3)cc2O1 (stereo not drawn) [Compound 79]	–	10 µM
CC1Oc2cc(Nc3ccnc4c3CCC4O)ccc2N(CCc2c[nH]c3ccccc23)C1=O (stereo not drawn) [Compound 80]	3.09 µM	–

— patent US8288377B2, “Inhibitors of the interaction between MDM2 and p53” (Janssen Pharmaceutica N.V., priority 2007, dated 2012)
